According to ChEMBL document CHEMBL4476882, “Inhibitors of nedd8-activating enzyme” (2013):
pIC50: −log10 of the molar value. One block for each compound: values may come before it. Active and inactive are the calls of the source. The rule behind the calls is not given here.

Assays:
[1] = molecular target: T1, NEDD8 activating enzyme (Homo sapiens, UniProt Q8TBC4); test: Inhibition of recombinant human NAE using GST-tagged Ubc12 and Flag-tagged Nedd8 incubated for 105 mins by HTRF assay; assay type: protein-complex assay
T1 sequence (Q8TBC4 whole entry): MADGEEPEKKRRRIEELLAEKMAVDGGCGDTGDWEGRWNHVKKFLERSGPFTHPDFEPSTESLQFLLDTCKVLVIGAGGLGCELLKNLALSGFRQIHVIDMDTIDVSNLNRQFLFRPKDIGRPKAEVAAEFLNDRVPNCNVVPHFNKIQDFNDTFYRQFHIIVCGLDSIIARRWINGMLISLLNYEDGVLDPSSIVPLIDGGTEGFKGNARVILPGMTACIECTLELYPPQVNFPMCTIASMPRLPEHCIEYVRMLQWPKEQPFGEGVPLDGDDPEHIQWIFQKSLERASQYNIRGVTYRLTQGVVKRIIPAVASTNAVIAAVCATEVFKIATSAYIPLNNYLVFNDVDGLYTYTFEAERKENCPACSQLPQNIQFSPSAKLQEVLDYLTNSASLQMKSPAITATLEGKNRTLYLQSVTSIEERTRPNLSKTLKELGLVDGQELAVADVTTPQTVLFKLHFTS
T1 sequence (Q13564 whole entry): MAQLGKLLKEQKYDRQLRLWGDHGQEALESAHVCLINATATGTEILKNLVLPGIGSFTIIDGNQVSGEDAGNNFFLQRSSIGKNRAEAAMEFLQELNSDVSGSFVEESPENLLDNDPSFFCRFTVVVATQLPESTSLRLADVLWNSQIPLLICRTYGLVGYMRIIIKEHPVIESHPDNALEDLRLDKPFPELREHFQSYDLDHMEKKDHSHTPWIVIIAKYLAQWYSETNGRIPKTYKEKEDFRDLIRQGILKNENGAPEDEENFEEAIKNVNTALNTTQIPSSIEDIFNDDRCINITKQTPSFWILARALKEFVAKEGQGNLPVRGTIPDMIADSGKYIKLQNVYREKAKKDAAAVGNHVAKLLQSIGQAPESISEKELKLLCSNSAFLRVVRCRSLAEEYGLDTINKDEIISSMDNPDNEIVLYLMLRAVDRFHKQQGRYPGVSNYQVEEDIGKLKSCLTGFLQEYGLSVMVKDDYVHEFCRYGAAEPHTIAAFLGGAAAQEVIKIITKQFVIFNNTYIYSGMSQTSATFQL

[2] = AUC (last) in plasma of female Ncr nude mouse bearing HCT116 tumor xenografts at 10 mg/kg, sc dosed as single administration measured up to 24 hrs post dose; assay type: ADME, organism-based; parameters: dose 10 mg/kg, time 0 - last, route subcutaneous
[3] = Cmax in plasma of female Ncr nude mouse bearing HCT116 tumor xenografts at 30 mg/kg, sc dosed as single administration measured up to 24 hrs post dose; assay type: ADME, organism-based; parameters: dose 30 mg/kg, route subcutaneous
[4] = tested on: Mus musculus; test: Inhibition of NAE in female Ncr nude mouse bearing HCT116 tumor xenografts assessed as increase in Nedd8-Cullin levels at 10 mg/kg, sc dosed as single administration measured up to 24 hrs post dose; assay type: functional, organism-based
[5] = AUC (last) in plasma of female Ncr nude mouse bearing HCT116 tumor xenografts at 30 mg/kg, sc dosed as single administration measured up to 24 hrs post dose; assay type: ADME, organism-based; parameters: dose 30 mg/kg, time 0 - last, route subcutaneous
[6] = tested on: Mus musculus; test: Inhibition of NAE in female Ncr nude mouse bearing HCT116 tumor xenografts assessed as increase in Nedd8-Cullin levels at 30 mg/kg, sc dosed as single administration measured up to 24 hrs post dose; assay type: functional, organism-based
[7] = Cmax in plasma of female Ncr nude mouse bearing HCT116 tumor xenografts at 10 mg/kg, sc dosed as single administration measured up to 24 hrs post dose; assay type: ADME, organism-based; parameters: dose 10 mg/kg, route subcutaneous

SMILES: CN(C)C(=O)[C@H]1Cc2ccccc2[C@H]1Nc1cc(O[C@@H]2C[C@@H](COS(N)(=O)=O)[C@@H](O)C2)ncn1
pIC50 [1]: 5.00 to 6.30

SMILES: CO[C@H]1Cc2cc(Cl)ccc2C1Nc1cc(O[C@@H]2CC(COS(N)(=O)=O)[C@@H](O)C2)ncn1 (single isomer, unassigned)
AUC(0-t) at 24 h [2]: 24.5 µM·h | Cmax [3]: 24.2 µM | inhibition [4]: Active | AUC(0-t) at 24 h [5]: 54.8 µM·h | inhibition [6]: Active | Cmax [7]: 10.4 µM

SMILES: NS(=O)(=O)OC[C@@H]1C[C@@H](Oc2cc(N[C@H]3CCc4ccccc43)ncn2)C[C@@H]1O
pIC50 [1]: < 5.00

SMILES: CO[C@H]1Cc2ccccc2[C@H]1Nc1cc(O[C@@H]2C[C@@H](COS(N)(=O)=O)[C@@H](O)C2)ncn1
Cmax [3]: 27.1 µM | AUC(0-t) at 24 h [5]: 26.3 µM·h | inhibition [6]: Active

SMILES: COc1cccc(-c2nc3c(N[C@@H]4C[C@@H](COS(N)(=O)=O)[C@@H](O)C4)ncnc3[nH]2)c1OC
pIC50 [1]: ≥ 6.30

The next lines start with the values.

pIC50 [1]: ≥ 6.30
SMILES: NS(=O)(=O)OC[C@@H]1C[C@@H](Nc2ncnc3[nH]c(-c4ccc(Cl)cc4)nc23)C[C@@H]1O

pIC50 [1]: ≥ 6.30
SMILES: Cc1c(N[C@H]2CCc3ccccc32)ncnc1O[C@@H]1C[C@@H](COS(N)(=O)=O)[C@@H](O)C1

pIC50 [1]: ≥ 6.30
SMILES: NS(=O)(=O)OC[C@H]1C[C@@H](Nc2ncnc(N[C@H]3CCc4ccccc43)n2)[C@H](O)[C@@H]1O

pIC50 [1]: ≥ 6.30
SMILES: CO[C@H]1CCc2ccccc2C1Nc1cc(O[C@H]2CC(O)[C@H](COS(N)(=O)=O)C2)ncn1 (single isomer, unassigned)

pIC50 [1]: ≥ 6.30
SMILES: COc1ccccc1-c1nc2c(N[C@@H]3C[C@@H](COS(N)(=O)=O)[C@@H](O)C3)ncnc2[nH]1
